The record followed here is patent US8673894B2 (Hoffmann-La Roche Inc., priority 2010, dated 2014).

Counter-ions that a name gives are not always drawn.

In test [1] the target is T1, endogenous cellular BACE2 (Rattus norvegicus, UniProt Q6IE75).
T1 construct: endogenous cellular BACE2 in the Ins1e rat cell line; endogenous in cells; host or cells: INS-TMEM27 (INS1e-derived rat insulinoma cell line with doxycycline-inducible full-length human TMEM27)
T1 sequence (Q6IE75 63-514): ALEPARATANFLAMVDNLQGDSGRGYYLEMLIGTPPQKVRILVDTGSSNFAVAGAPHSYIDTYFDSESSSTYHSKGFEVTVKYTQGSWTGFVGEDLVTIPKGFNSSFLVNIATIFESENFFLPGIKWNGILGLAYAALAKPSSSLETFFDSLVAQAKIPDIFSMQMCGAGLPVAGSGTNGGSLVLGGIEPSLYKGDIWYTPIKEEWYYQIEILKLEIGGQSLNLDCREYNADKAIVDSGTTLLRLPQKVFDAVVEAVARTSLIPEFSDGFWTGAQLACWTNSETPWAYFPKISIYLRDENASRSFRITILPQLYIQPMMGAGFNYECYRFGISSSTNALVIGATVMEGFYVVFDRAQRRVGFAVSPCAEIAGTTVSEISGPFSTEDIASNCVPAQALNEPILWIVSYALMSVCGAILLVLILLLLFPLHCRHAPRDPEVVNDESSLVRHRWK
In words: Assay for BACE inhibition by measuring cellular TMEM27 cleavage. The note with it: INS-TMEM27 (INS1e-derived) cells, shed human TMEM27 in supernatant by ELISA. In kind it is cell-based. The text has this: Assay for BACE Inhibition by Measuring Cellular TMEM27 Cleavage:
The assay uses the principle of inhibition of human TMEM27 cleavage by endogenous cellular BACE2 in the Ins1e rat cell line and shedding from the cell surface into the culture medium, followed by detection in an ELISA assay. Inhibition of BACE2 prevents the cleavage and shedding in a dose-dependent manner.
The stable cell line “INS-TMEM27” represents an INS1e-derived cell line with inducible expression (using the TetOn system) of full-length hTMEM27 in a doxycycline-dependent manner. The cells are cultured throughout the experiment in RPMI1640+ Glutamax (Invitrogen) Penicillin/Streptomycin, 10% Fetal bovine serum, […], […], 100 micrograms/ml G418 and 100 microgram/ml hygromycin and are grown inadherent culture at 37° C. in a standard CO2 cell culture incubator.
INS-TMEM27 cells are seeded in 96-well plates. After 2 days in culture, BACE2 inhibitor is added in a range of concentrations as required by the assay and after a further two hours, doxycycline is added to a final concentration of 500 ng/ml. The cells are incubated for a further 46 hours and the supernatant harvested for detection of shed TMEM27.
An ELISA assay (using a pair of mouse anti-human-TMEM27 antibodies, raised against the extracellular domain of TMEM27) is used for detection of TMEM27 in the culture medium. An EC50 for BACE2 inhibition is calculated using the ELISA readout for each inhibitor concentration with standard curve-fitting software such as XLFit for the Excel spreadsheet program.
(An ELISA detects its analyte on a solid surface through an enzyme-linked reagent.)

The test system of another test is Aβ40. In words: Cellular Aβ-lowering assay. In kind it is cell-based. The note with it: HEK293 cells stably expressing human APP695, Aβ40 in supernatant by ELISA after 18-20 hrs; read-out: Cellular assay Abeta40 IC50. As for the experimental part:
Cellular Aβ-Lowering Assay:
Human HEK293 cells which are stably transfected with a vector expressing a cDNA of the human APP wt gene (APP695) were used to assess the potency of the compounds in a cellular assay. The cells were seeded in 96-well microtiter plates in cell culture medium (Iscove, plus 10% (v/v) fetal bovine serum, glutamine, penicillin/streptomycin) to about 80% confluence and the compounds were added at a 10× concentration in 1/10 volume of medium without FCS containing 8% DMSO (final concentration of DMSO was kept at 0.8% v/v). After 18-20 hrs incubation at 37° C. and 5% CO2 in a humidified incubator the culture supernatant was harvested for the determination of Aβ40 concentrations. 96well ELISA plates (e.g., Nunc MaxiSorb) were coated with monoclonal antibody which specifically recognize the C-terminal end of Aβ40 (Brockhaus et al., NeuroReport 9, 1481-1486; 1998). After blocking of non-specific binding sites with e.g. 1% BSA and washing, the culture supernatants were added in suitable dilutions together with a horseradish peroxidase-coupled Aβ detection antibody (e.g., antibody 4G8, Senetek, Maryland Heights, Mo.) and incubated for 5 to 7 hrs. Subsequently the wells of the microtiter plate were washed extensively with Tris-buffered saline containing 0.05% Tween 20 and the assay was developed with tetramethylbenzidine/H2O2 in citric acid buffer. After stopping the reaction with one volume 1 N H2SO4 the reaction was measured in an ELISA reader at 450 nm wavelength. The concentrations of Aβ in the culture supernatants were calculated from a standard curve obtained with known amounts of pure Aβ peptide.

Consider `CC1(C)C[C@@](C)(c2cc(NC(=O)c3ccc(OC(F)F)cn3)ccc2F)N=C(N)CO1` [Example 11, 5-Difluoromethoxy-pyridine-2-carboxylic acid [3-((S)-3-amino-5,7,7-trimethyl-2,5,6,7-tetrahydro-[1,4]oxazepin-5-yl)-4-fluoro-phenyl]-amide], for which the IC50 in test [1] turned out to be 2 nM; in the test with Aβ40, 2.1 nM.
In the same order, the values of `C[C@@]1(c2cc(NC(=O)c3ccc(OCC(F)(F)F)cn3)ccc2F)CCOCC(N)=N1` [Example 12, 5-(2,2,2-Trifluoro-ethoxy)-pyridine-2-carboxylic acid [3-((S)-3-amino-5-methyl-2,5,6,7-tetrahydro-[1,4]oxazepin-5-yl)-4-fluoro-phenyl]-amide] are 120 nM and 9 nM.
With `CC[C@@]1(c2cc(NC(=O)c3ccc(F)cn3)ccc2F)CCOCC(N)=N1` [Example 13, 5-Fluoro-pyridine-2-carboxylic acid [3-((S)-3-amino-5-ethyl-2,5,6,7-tetrahydro-[1,4]oxazepin-5-yl)-4-fluoro-phenyl]-amide], the IC50 in test [1] turned out to be 44 nM; in the test on Aβ40, 250 nM.
In the same order, the values of `CC[C@@]1(c2cc(NC(=O)c3ccc(Cl)cn3)ccc2F)CCOCC(N)=N1` [Example 14, 5-Chloro-pyridine-2-carboxylic acid [3-((S)-3-amino-5-ethyl-2,5,6,7-tetrahydro-[1,4]oxazepin-5-yl)-4-fluoro-phenyl]-amide] are 69.5 nM and 93 nM.
For `CC[C@@]1(c2cc(NC(=O)c3ncc(Cl)cc3Cl)ccc2F)CCOCC(N)=N1` [Example 15, 3,5-Dichloro-pyridine-2-carboxylic acid [3-((S)-3-amino-5-ethyl-2,5,6,7-tetrahydro-[1,4]oxazepin-5-yl)-4-fluoro-phenyl]-amide] the same measures were 38 nM and 880 nM.
`C[C@@]1(c2cc(NC(=O)c3ncc(C(F)(F)F)cc3Cl)ccc2F)CCOCC(N)=N1` [Example 16, 3-Chloro-5-trifluoromethyl-pyridine-2-carboxylic acid [3-((S)-3-amino-5-methyl-2,5,6,7-tetrahydro-[1,4]oxazepin-5-yl)-4-fluoro-phenyl]-amide]: the 50% inhibitory concentration (IC50) in test [1] came out at 13.5 nM; in the test on Aβ40, 14 nM.
For the molecule `C[C@@]1(c2cc(NC(=O)C3(C(F)(F)F)CC3)ccc2F)CCOCC(N)=N1` [Example 17, 1-Trifluoromethyl-cyclopropanecarboxylic acid [3-((S)-3-amino-5-methyl-2,5,6,7-tetrahydro-[1,4]oxazepin-5-yl)-4-fluoro-phenyl]-amide], the IC50 is 400 nM in test [1] and 920 nM in the test on Aβ40.
In the case of `CC1(C)C[C@@](C)(c2cc(NC(=O)c3ccc(OCC(F)(F)F)cn3)ccc2F)N=C(N)CO1` [Example 18, 5-(2,2,2-Trifluoro-ethoxy)-pyridine-2-carboxylic acid [3-((S)-3-amino-5,7,7-trimethyl-2,5,6,7-tetrahydro-[1,4]oxazepin-5-yl)-4-fluoro-phenyl]-amide], the values for the 50% inhibitory concentration (IC50) (in test [1]; in the test with Aβ40) were 120 nM and 22 nM, respectively.
For `CC1(C)C[C@@](C)(c2cc(NC(=O)C3CC3(F)F)ccc2F)N=C(N)CO1` (stereo partly drawn) [Example 19, 2,2-Difluoro-cyclopropanecarboxylic acid [3-((S)-3-amino-5,7,7-trimethyl-2,5,6,7-tetrahydro-[1,4]oxazepin-5-yl)-4-fluoro-phenyl]-amide] the same measures were 56 nM and 440 nM.
In the same order, the values of `CC1(C)C[C@@](C)(c2cc(NC(=O)C3(C(F)(F)F)CC3)ccc2F)N=C(N)CO1` [Example 20, 1-Trifluoromethyl-cyclopropanecarboxylic acid [3-((S)-3-amino-5,7,7-trimethyl-2,5,6,7-tetrahydro-[1,4]oxazepin-5-yl)-4-fluoro-phenyl]-amide] are 38 nM and 220 nM.
In the same order, the values of `CC1(C)C[C@@](C)(c2cc(NC(=O)c3ncc(C(F)(F)F)cc3Cl)ccc2F)N=C(N)CO1` [Example 21, 3-Chloro-5-trifluoromethyl-pyridine-2-carboxylic acid [3-((S)-3-amino-5,7,7-trimethyl-2,5,6,7-tetrahydro-[1,4]oxazepin-5-yl)-4-fluoro-phenyl]-amide] are 8.7 nM and 3.2 nM.
With `CC1(C)C[C@@](C)(c2cc(NC(=O)CC(F)(F)F)ccc2F)N=C(N)CO1` [Example 22, N-[3-((S)-3-Amino-5,7,7-trimethyl-2,5,6,7-tetrahydro-[1,4]oxazepin-5-yl)-4-fluoro-phenyl]-3,3,3-trifluoro-propionamide], the concentration for half-maximal inhibition (IC50) was 55 nM in test [1] and 980 nM with Aβ40.
Turning to `C[C@@]1(c2cc(NC(=O)C3CC3(F)F)ccc2F)CCOCC(N)=N1` (stereo partly drawn) [Example 23, 2,2-Difluoro-cyclopropanecarboxylic acid [3-((S)-3-amino-5-methyl-2,5,6,7-tetrahydro-[1,4]oxazepin-5-yl)-4-fluoro-phenyl]-amide], the IC50 came to 140 nM in test [1] and 1640 nM with Aβ40.
Consider `C[C@@]1(c2cc(NC(=O)C3(C(F)(F)F)CCC3)ccc2F)CCOCC(N)=N1` [Example 24, 1-Trifluoromethyl-cyclobutanecarboxylic acid [3-((S)-3-amino-5-methyl-2,5,6,7-tetrahydro-[1,4]oxazepin-5-yl)-4-fluoro-phenyl]-amide], for which the IC50 in test [1] turned out to be 28 nM; in the test with Aβ40 it was 5870 nM.
With `C[C@]1(c2cc(NC(=O)c3ncc(C(F)(F)F)cc3Cl)ccc2F)N=C(N)COCC1(F)F` [Example 25, 3-Chloro-5-trifluoromethyl-pyridine-2-carboxylic acid [3-((R)-3-amino-6,6-difluoro-5-methyl-2,5,6,7-tetrahydro-[1,4]oxazepin-5-yl)-4-fluoro-phenyl]-amide], the IC50 in test [1] stood at 51 nM; in the test with Aβ40 it was 7 nM.
As to `C[C@]1(c2cc(NC(=O)c3ncccc3F)ccc2F)N=C(N)COCC1(F)F` [Example 27, (R)-N-(3-(3-amino-6,6-difluoro-5-methyl-2,5,6,7-tetrahydro-1,4-oxazepin-5-yl)-4-fluorophenyl)-3-fluoropicolinamide, salt with formic acid], the figures for the 50% inhibitory concentration (IC50) (in test [1]; with Aβ40) were 58 nM and 44 nM, respectively.
In the same order, the values of `CC1(C)OCCC(C)(c2cc(NC(=O)c3ccc(F)cn3)ccc2F)N=C1N` (stereo not drawn) [Example 28, 5-Fluoro-pyridine-2-carboxylic acid [3-(3-amino-2,2,5-trimethyl-2,5,6,7-tetrahydro-[1,4]oxazepin-5-yl)-4-fluoro-phenyl]-amide] are 130 nM and 340 nM.
In the same order, the values of `C[C@]1(c2cc(NC(=O)c3ccc(F)cn3)ccc2F)N=C(N)COCC1(F)F` [Example 29, (R)-N-(3-(3-amino-6,6-difluoro-5-methyl-2,5,6,7-tetrahydro-1,4-oxazepin-5-yl)-4-fluorophenyl)-5-fluoropicolinamide formate] are 3.3 nM and 5.3 nM.

One may read the IC50 as the concentration at which inhibition is half-maximal.
